The nature of data set [1]: pH upon addition of test substance to 0.1 M HCl solution (pH 1.2), pH meter. The data set is classed as physicochemical. The protocol: The solution pH was determined using an MP-103 pH-meter (MRC, Israel) equipped with ELC-10-00 electrode (MRC, Israel) or with a thin electrode HI1083 (HANNA instruments Inc.), shortly after dissolution and up to 26 hours later in order to ensure that the pH remained stable. The highest pH value obtained during the experimental time period was recorded in order to compare the acid-neutralizing capacity of each substance.
SNAC and the basic polymers sodium alginate, sodium carboxymethylcellulose in non-crosslinked (Na-CMC) and crosslinked (croscarmellose sodium, CCS) forms, and sodium starch glycolate (SSG) were dissolved in various volumes of 0.1 M HCl solution (pH 1.2) at concentrations of 1, 2, 4, 10, 20, 50, 100 and 150 mg/ml, and the solution pH was determined using an MP-103 pH-meter (MRC, Israel) equipped with ELC-10-00 electrode (MRC, Israel), as described in the Materials and Methods section hereinabove.
In order to obtain a beneficial rise in pH with a reduced loss of the active form of the absorption enhancer, the effect of various concentrations of different polymers containing carboxylate groups (sodium alginate, sodium starch glycolate, sodium carboxymethylcellulose, and croscarmellose sodium) on pH upon addition to a 0.1 M HCl solution (pH 1.2) was also evaluated. FIG. 3A presents pH values determined using an MP-103 pH-meter (MRC, Israel) equipped with ELC-10-00 electrode (MRC, Israel) and FIG. 3B presents pH values determined using an MP-103 pH-meter (MRC, Israel) equipped with a thin electrode HI1083 (HANNA instruments Inc.).

For a further data set, the system named is pepsin. As to the kind of experiment: Effect of pH on proteolysis of hPTH(1-34) by pepsin. The data set is classed as in vitro ADME. The following applies: 37° C., 3 minutes, media pH 2, 4, 5, 6, 7. The protocol:
The effect of pH on peptide proteolysis by pepsin was determined by incubating 13.5 µg/ml human parathyroid hormone (1-34) (hPTH(1-34)) with 150 µg/ml pepsin, at various pH values, and determining the percentage of hPTH(1-34) which remained. The amount of hPTH(1-34) remaining upon addition to 150 µg/ml pepsin at 37° C. was determined in media with different pH values, followed by immediate (10 second) vortex and centrifugation for 3 minutes at 4° C., 4000 RCF. The following media were used: simulated gastric fluid (pH 2), prepared from 0.01 M HCl and NaCl; phthalate buffer (pH 4 or 5); and phosphate buffer (pH 6 or 7).

Data set [2] is described as follows: Teduglutide plasma concentration after oral mini-tablets with SNAC and SSG in rats. In kind it is in vivo, male Sprague-Dawley (SD) rats. As to conditions: mini-tablets: 0.7 mg teduglutide (2.34 mg/Kg), 15 mg SNAC, 5.33 mg SSG; male SD rats, n=7. As to the method:
A formulation was prepared with 0.7 mg teduglutide (2.34 mg/Kg), 15 mg SNAC, 0.2 mg stearate and 5.33 mg SSG. […] Afterwards, mini-tablets were prepared from the mixes using a 2 mm punch and die set at 1 ton/cm^2.
The study was conducted in 7 male Sprague-Dawley (SD) rats weighing about 299 grams (290-320 grams). Animals were deprived of food 12-15 hours prior to administration. Water supply was removed one hour before administration and returned one hour post-administration. The mini-tablets were administered by a flexible intragastric gavage with a tip adapted for solid dosage forms administration, without the aid of water.

For the compound `O=C(O)CCCCCCCNC(=O)c1ccccc1O` [SNAC, sodium 8-N-(2-hydroxybenzoyl)aminocaprylate], the “pH 5 minutes after dissolution” value was “about 1.5” in data set [1] (10 mg/ml SNAC added to HCl solution (pH 1.2)), 6.5 in data set [1] (20 mg/ml SNAC added to HCl solution (pH 1.2)) and “about 7.5” in data set [1] (100 mg/ml SNAC added to HCl solution (pH 1.2)).
As for `CC[C@H](C)[C@H](NC(=O)[C@H](CCC(=O)O)NC(=O)[C@H](CO)NC(=O)[C@@H](NC(=O)[C@@H](N)CO)C(C)C)C(=O)N[C@@H](CCC(N)=O)C(=O)N[C@@H](CC(C)C)C(=O)N[C@@H](CCSC)C(=O)N[C@@H](Cc1cnc[nH]1)C(=O)N[C@@H](CC(N)=O)C(=O)N[C@@H](CC(C)C)C(=O)NCC(=O)N[C@@H](CCCCN)C(=O)N[C@@H](Cc1cnc[nH]1)C(=O)N[C@@H](CC(C)C)C(=O)N[C@@H](CC(N)=O)C(=O)N[C@@H](CO)C(=O)N[C@@H](CCSC)C(=O)N[C@@H](CCC(=O)O)C(=O)N[C@@H](CCCN=C(N)N)C(=O)N[C@H](C(=O)N[C@@H](CCC(=O)O)C(=O)N[C@@H](Cc1c[nH]c2ccccc12)C(=O)N[C@@H](CC(C)C)C(=O)N[C@@H](CCCN=C(N)N)C(=O)N[C@@H](CCCCN)C(=O)N[C@@H](CCCCN)C(=O)N[C@@H](CC(C)C)C(=O)N[C@@H](CCC(N)=O)C(=O)N[C@@H](CC(=O)O)C(=O)N[C@H](C(=O)N[C@@H](Cc1cnc[nH]1)C(=O)N[C@@H](CC(N)=O)C(=O)N[C@@H](Cc1ccccc1)C(=O)O)C(C)C)C(C)C` [hPTH(1-34)], the “proteolysis of hPTH(1-34) by pepsin as a function of pH” value in the data set on pepsin is “inhibited when the pH increased to about pH 6 or higher”.
For the compound `CC[C@H](C)[C@H](NC(=O)[C@H](Cc1ccccc1)NC(=O)[C@H](CC(=O)O)NC(=O)[C@H](CCCNC(=N)N)NC(=O)[C@H](C)NC(=O)[C@H](C)NC(=O)[C@H](CC(C)C)NC(=O)[C@H](CC(N)=O)NC(=O)[C@H](CC(=O)O)NC(=O)[C@H](CC(C)C)NC(=O)[C@@H](NC(=O)[C@@H](NC(=O)[C@H](CC(N)=O)NC(=O)[C@H](CCSC)NC(=O)[C@H](CCC(=O)O)NC(=O)[C@H](CC(=O)O)NC(=O)[C@H](CO)NC(=O)[C@H](Cc1ccccc1)NC(=O)[C@H](CO)NC(=O)CNC(=O)[C@H](CC(=O)O)NC(=O)CNC(=O)[C@@H](N)Cc1c[nH]cn1)[C@@H](C)O)[C@@H](C)CC)C(=O)N[C@@H](CC(N)=O)C(=O)N[C@@H](Cc1c[nH]c2ccccc12)C(=O)N[C@@H](CC(C)C)C(=O)N[C@H](C(=O)N[C@@H](CCC(N)=O)C(=O)N[C@H](C(=O)N[C@@H](CCCCN)C(=O)N[C@H](C(=O)N[C@H](C(=O)N[C@@H](CC(=O)O)C(=O)O)[C@@H](C)O)[C@@H](C)CC)[C@@H](C)O)[C@@H](C)CC` [teduglutide], the “teduglutide plasma concentrations as a function of time after oral administration” value in data set [2] was “enable oral delivery of teduglutide”.

For the origin of these results see US20250186558A1, “FORMULATIONS COMPRISING ACID-NEUTRALIZING POLYMER FOR ORAL ADMINISTRATION OF ACTIVE AGENTS” (Entera Bio Ltd., priority 2022, published 2025).
